Results on one compound are retold here after article PMC5514153, “Targeting PTPRZ inhibits stem cell-like properties and tumorigenicity in glioblastoma cells” (Scientific Reports, 2017).

The test system of one assay is PTPN1 F191V. Nature of the assay: Inhibitor sensitivity of point mutant PTPN1 F191V. The class given is biochemical, human. The settings on record: at 10 µM. From the text: Figure 5 Structural basis for PTPRZ inhibition of NAZ2329. (A) An enlarged view of the X-ray structure of human PTPRZ1-D1 complexed with NAZ2329 (PDB ID: 5H08) (left), X-ray structure of the apo (open) form of PTPRZ1-D1 (PDB ID: 5AWX, ref. [6], middle) and a computer-modeled structure of the closed form of PTPRZ1-D1 complexed with a competitive inhibitor, SCB4380 (ref. [6], right), are shown. PTPRZ1-D1 is shown as a gray surface representation, in which Cys1933 at the active site and Val-1911 at the bottom of the allosteric pocket are indicated in red and yellow, respectively. Inhibitors are colored according to the atomic species in a stick figure representation as follows: oxygen (red), nitrogen (blue), sulfur (yellow), and carbon (green). The bottom figures show the conformation of the WPD loop (orange) as cartoon representations, in which Asp1901 and Cys1933 are indicated by orange and red spheres, respectively. Side chains of Arg1939 at the active site, Met1902 in the WPD loop, and Val-1911 at the bottom of the allosteric binding area are also shown in the stick representation. (B) LigPlot representation of the NAZ2329 interaction with PTPRZ1-D1. The predicted hydrogen bonds (broken black lines) and residues (red spoked arcs) involved in the hydrophobic interaction are shown. […]

A further assay relates to C6 cells. Briefly: Boyden chamber migration assay, C6 cells. The settings on record: 3 h. The class given is cell-based, rat. How it is done: Figure 7 Cellular effects of NAZ2329 on the malignant phenotypes of C6 cells. (A) Phosphorylation of paxillin at Tyr-118. C6 cells were incubated with NAZ2329 for the indicated periods. Immunoprecipitated paxillin was analyzed by Western blotting using anti-pY118-paxillin and anti-paxillin. Blots are representative of five independent cultures. […] (B) Cell proliferation assay. C6 cells were incubated for 48 h with NAZ2329 in normal medium containing 2% FBS. […] (C) Boyden chamber assay. Cells were allowed to migrate for 3 h. DAPI-stained nuclei are shown before (total) and after (migrated) the removal of cells remaining in the top chamber. Scale bars, 100 µm. […] (D,E) Sphere formation (D) and SOX2 expression (E). C6 cells were cultured in CSC medium for 7 days with indicated concentrations of NAZ2329. Images are representative of five independent cultures. Scale bars, 100 µm. […] (F) Self-renewal of C6 spheres. C6 spheres were initially developed in CSC medium for 7 days, followed by an incubation with NAZ2329 in CSC medium for 5 days. Images are representative of five independent cultures. Scale bars, 100 µm. […] Full-length blots and gels are presented in Supplementary Fig. S7.
This assay was performed as described previously. […] Cells were allowed to migrate for 3 h, and the number of cells that migrated to the lower surface was counted under a conventional fluorescence microscope.

The next assay concerns the target T1, hPTPRZ1 (D1) (Homo sapiens, UniProt P23471).
T1 construct: human PTPRZ1-D1 (amino acid residues, 1,698-2,000)
Nature of the assay: In vitro PTPase assay (DiFMUP), PTPRZ1 D1 domain. Conditions: first PTP domain fragment. The class given is biochemical.

Assay [1] deals with paxillin at Tyr-118 in C6 cells. Nature of the assay: Paxillin Tyr-118 phosphorylation in C6 cells (Western blot). The class given is cell-based, rat. Conditions: 25 µM. How it is done:
Figure 7 Cellular effects of NAZ2329 on the malignant phenotypes of C6 cells. (A) Phosphorylation of paxillin at Tyr-118. C6 cells were incubated with NAZ2329 for the indicated periods. Immunoprecipitated paxillin was analyzed by Western blotting using anti-pY118-paxillin and anti-paxillin. Blots are representative of five independent cultures. […] (B) Cell proliferation assay. C6 cells were incubated for 48 h with NAZ2329 in normal medium containing 2% FBS. […] (C) Boyden chamber assay. Cells were allowed to migrate for 3 h. DAPI-stained nuclei are shown before (total) and after (migrated) the removal of cells remaining in the top chamber. Scale bars, 100 µm. […] (D,E) Sphere formation (D) and SOX2 expression (E). C6 cells were cultured in CSC medium for 7 days with indicated concentrations of NAZ2329. Images are representative of five independent cultures. Scale bars, 100 µm. […] (F) Self-renewal of C6 spheres. […]
After precleaning the extracts with Protein G Sepharose (#17-0618-02, GE Healthcare), samples were subjected to immunoprecipitation with Protein G Sepharose coated with a mouse anti-paxillin antibody. […] The binding of these antibodies was detected with Luminata Forte Western HRP substrate (Millipore) and imaged with a chemiluminescent image analyzer system (EZ-Caputure MG, Atto Corp).
In general terms: Immunoblotting shows a protein as a band on a membrane.

T1 sequence (P23471 1698-2000 limits assumed): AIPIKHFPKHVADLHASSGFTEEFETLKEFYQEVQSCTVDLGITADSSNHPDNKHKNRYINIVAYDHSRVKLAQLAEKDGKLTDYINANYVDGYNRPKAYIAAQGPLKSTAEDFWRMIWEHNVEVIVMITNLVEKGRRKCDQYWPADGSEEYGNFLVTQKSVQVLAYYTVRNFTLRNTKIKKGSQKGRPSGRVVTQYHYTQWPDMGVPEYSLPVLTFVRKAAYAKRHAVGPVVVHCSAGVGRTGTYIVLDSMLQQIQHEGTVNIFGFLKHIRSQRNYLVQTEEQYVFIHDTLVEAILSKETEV

As for `CCOc1ccc(C(F)(F)F)cc1CSc1ccsc1C(=O)NS(=O)(=O)c1ccccc1` [NAZ2329], the “change in sensitivity of F191V mutant vs wild-type PTPN1 (more sensitive)” value in the assay with PTPN1 F191V is listed as ~ 2 fold. In the assay with C6 cells, the cell migration entry is “inhibited”. This compound also yielded an IC50 at hPTPRZ1 (D1) of 1100 nM. For the same compound, in assay [1], the “phosphorylation level of paxillin at Tyr-118” value was “significantly enhanced the phosphorylation level”.

By IC50 is commonly meant the concentration needed to halve the response being measured. A low value points to greater potency.
